Test system: tobacco budworm (Heliothis virescens [Fabricius])
Test: surface-treated diet test against the tobacco budworm
Format: in vivo
Conditions: tobacco budworm second instar larvae, 0.25 millimoles of candidate insecticide on the surface of the diet, five-day exposure; for Percent Mortality: compared to total number of insects infested; for Percent Growth Inhibition: inhibition of insect weight relative to untreated controls
Procedure, shortened: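 Wheat germ artificial diet surface-treated with 40 µL of 50 mM DMSO stock diluted 1:7 in 1:1 water/acetone (0.25 millimolar on diet), or sub-multiples for rate tests. One second-instar larva per well, 25° C, 60% RH, 5 days; percent weight inhibition vs DMSO controls and percent mortality.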

| Structure (SMILES) | Percent Mortality (surface-treated diet) [%] | Percent Growth Inhibition (surface-treated diet) [%] | Percent Mortality [%] | Percent Growth Inhibition [%] |
| --- | --- | --- | --- | --- |
| CCCOc1ccc(CN2CCC(C(OC(=O)Nc3ccc(Cl)cc3)c3ccc(F)cc3)CC2)cc1 (centres unmarked) [Compound 475] | 100 | 100 |  |  |
| Cn1nnc(-c2ccc(CN3CCC(C(NC(=O)c4ccc(Br)cc4)c4ccc(OC(F)(F)F)cc4)CC3)cc2)n1 (centres unmarked) [Compound 325] | 50 | 100 |  |  |
| CCn1nnc(-c2ccc(CN3CCC(C(OC(=O)Nc4ccc(-c5ccccc5)cc4)c4ccc(C(F)(F)F)cc4)CC3)cc2)n1 (centres unmarked) [Compound 297] | 100 | 100 |  |  |
| Cn1nnc(-c2ccc(CN3CCC(C(NC(=O)Oc4ccc(Cl)cc4)c4ccc(OC(F)(F)F)cc4)CC3)cc2)n1 (centres unmarked) [Compound 349] | 100 | 100 |  |  |
| COc1ccc(C(=O)Nc2ccc(CN3CCC(C(OC(=O)Nc4cc(F)cc(F)c4)c4ccc(C(F)(F)F)cc4)CC3)cc2)cc1 (centres unmarked) [Compound 554] | 0 | 99 |  |  |
| Cc1cc(C)cc(NC(=O)OC(c2ccc(Cl)cc2)C2CCN(Cc3ccc(Oc4ccccn4)cc3)CC2)c1 (centres unmarked) [Compound 632] | 100 | 100 |  |  |
| O=C(Nc1ccc(Cl)cn1)OC(c1ccc(C(F)(F)F)cc1)C1CCN(Cc2ccc(Oc3ccccn3)cc2)CC1 (centres unmarked) [Compound 439] | 100 | 100 |  |  |
| O=C(Nc1cc(F)cc(F)c1)OC(c1ccc(C(F)(F)F)cc1)C1CCN(Cc2ccc(NC(=O)c3ccccc3Cl)cc2)CC1 (centres unmarked) [Compound 550] | 100 | 100 |  |  |
| O=C(Nc1ccc(Cl)cc1)OC(c1ccc(Cl)cc1)C1CCN(Cc2ccc(Oc3ccccn3)cc2)CC1 (centres unmarked) [Compound 629] | 100 | 100 |  |  |
| CCn1nnc(-c2ccc(CN3CCC(C(OC(=O)Nc4ccc(C(F)(F)F)cc4)c4ccc(-c5ccccc5)cc4)CC3)cc2)n1 (centres unmarked) [Compound 615] | 17 | 72 |  |  |
| Cn1nnc(-c2ccc(CN3CCC(C(NC(=O)Nc4ccccc4Cl)c4ccc(OC(F)(F)F)cc4)CC3)cc2)n1 (centres unmarked) [Compound 334] | 100 | 100 |  |  |
| O=C(Nc1ccc(F)cc1)OC(c1ccc(OC(F)(F)F)cc1)C1CCN(Cc2ccc(Oc3ccccn3)cc2)CC1 (centres unmarked) [Compound 236] | 100 | 100 |  |  |
| CCNC(=O)OC(c1ccc(C(F)(F)F)cc1)C1CCN(Cc2ccc(Oc3ccccn3)cc2)CC1 (centres unmarked) [Compound 774] |  |  | 0 | 98 |
| O=C(Nc1ccc(Cl)cc1)OC(c1ccc(C(F)(F)F)cc1)C1CC[N+]([O-])(Cc2ccc(Oc3ccc(Cl)nn3)cc2)CC1 (centres unmarked) [Compound 767] |  |  | 100 | 100 |
| Fc1ccc(C(=C2CCN(Cc3ccc(Oc4ccccn4)cc3)CC2)c2ccc(F)cc2)cc1 [Compound 810] |  |  | 100 | 100 |
| CC(C)NC(=O)Oc1ccc(CN2CCC(=C(c3ccc(C(F)(F)F)cc3)c3ccc(C(F)(F)F)cc3)CC2)cc1 [Compound 792] |  |  | 100 | 100 |
| O=C(Nc1cc(F)cc(F)c1)OC(c1ccc(C(F)(F)F)cc1)C1CCN(Cc2ccc(Oc3cccnn3)cc2)CC1 (centres unmarked) [Compound 736] |  |  | 100 | 100 |
| CCON=Cc1ccc(CN2CCC(C(OC(=O)Nc3ccc(Cl)cc3)c3ccc(F)cc3)CC2)cc1 (centres unmarked) [Compound 526] | 100 | 100 |  |  |
| O=C(Nc1cccc(F)c1)OC(c1ccc(OC(F)(F)F)cc1)C1CCN(Cc2ccc(Oc3ccccn3)cc2)CC1 (centres unmarked) [Compound 235] | 100 | 100 |  |  |
| CCn1nnc(-c2ccc(CN3CCC(C(OC(=O)Nc4ccc(F)c(F)c4)c4ccc(C)cc4)CC3)cc2)n1 (centres unmarked) [Compound 597] | 100 | 100 |  |  |
| CCON=Cc1ccc(CN2CCC(C(OC(=O)Nc3cccc(F)c3)c3cc(Cl)cc(Cl)c3)CC2)cc1 (centres unmarked) [Compound 533] | 100 | 100 |  |  |
| FC(F)(F)c1ccc(C(Oc2cc(C(F)(F)F)ccn2)C2CCN(Cc3ccc(Oc4ccccn4)cc3)CC2)cc1 (centres unmarked) [Compound 438] | 100 | 100 |  |  |

| Structure (SMILES) | Percent Mortality (surface-treated diet) [%] | Percent Growth Inhibition (surface-treated diet) [%] | Percent Mortality [%] | Percent Growth Inhibition [%] |
| --- | --- | --- | --- | --- |
| O=C(Nc1cccc(F)c1)OC(c1ccc(Cl)cc1Cl)C1CCN(Cc2ccc(Oc3ncccn3)cc2)CC1 (centres unmarked) [Compound 719] |  |  | 100 | 100 |
| CCn1nnc(-c2ccc(CN3CCC(C(OC(=O)Nc4ccc(C(F)(F)F)cc4)c4ccccc4)CC3)cc2)n1 (centres unmarked) [Compound 565] | 100 | 100 |  |  |
| [O-][N+]1(Cc2ccc(Oc3ncccn3)cc2)CCC(=C(c2ccc(C(F)(F)F)cc2)c2cc(Cl)cc(Cl)c2)CC1 (centres unmarked) [Compound 851] |  |  | 50 | 100 |
| Cc1ccc(OC(=O)NC(c2ccc(OC(F)(F)F)cc2)C2CCN(Cc3ccc(-c4nnn(C)n4)cc3)CC2)cc1 (centres unmarked) [Compound 355] | 100 | 100 |  |  |
| N#Cc1cccnc1Oc1ccc(CN2CCC(C(OC(=O)Nc3ccc(Cl)cc3)c3ccc(C(F)(F)F)cc3)CC2)cc1 (centres unmarked) [Compound 670] | 100 | 100 |  |  |
| CC(C)OC(=O)Nc1ccc(C[N+]2([O-])CCC(=C(c3ccc(Cl)c(Cl)c3)c3ccc(Cl)c(Cl)c3)CC2)cc1 (centres unmarked) [Compound 833] |  |  | 100 | 100 |
| [O-][N+]1(Cc2ccc(Oc3ccc(Cl)nn3)cc2)CCC(=C(c2ccc(C(F)(F)F)cc2)c2ccc(C(F)(F)F)cc2)CC1 (centres unmarked) [Compound 855] |  |  | 100 | 100 |
| CCON=Cc1ccc(CN2CCC(C(OC(=O)Nc3cc(Cl)ccc3Cl)c3ccc(C(F)(F)F)cc3)CC2)cc1 (centres unmarked) [Compound 191] | 100 | 100 |  |  |
| CC(C)OC(=O)c1ccc(C[N+]2([O-])CCC(C(OC(=O)Nc3ccc(Cl)cc3)c3ccc(C(F)(F)F)cc3)CC2)cc1 (centres unmarked) [Compound 745] |  |  | 100 | 100 |
| O=C(Nc1ccc(F)cc1)OC(c1ccc(F)cc1)C1CCN(Cc2ccc(Oc3ccccn3)cc2)CC1 (centres unmarked) [Compound 640] | 100 | 100 |  |  |
| O=C(Nc1cc(F)cc(F)c1)OC(c1ccc(F)cc1)C1CC[N+]([O-])(Cc2ccc(Oc3ccccn3)cc2)CC1 (centres unmarked) [Compound 752] |  |  | 100 | 100 |
| CC=CCOC(=O)Nc1ccc(CN2CCC(=C(c3ccc(Cl)cc3)c3ccc(Cl)cc3)CC2)cc1 [Compound 798] |  |  | 0 | 59 |
| FC(F)(F)c1ccc(C(OC(=S)Nc2cccc(C(F)(F)F)c2)C2CCN(Cc3ccc(Oc4ccccn4)cc3)CC2)cc1 (centres unmarked) [Compound 692] | 100 | 100 |  |  |
| O=C(Nc1cc(F)cc(F)c1)OC(C1=CC[N+]([O-])(Cc2ccc(Oc3ncccn3)cc2)CC1)c1ccc(C(F)(F)F)cc1 (centres unmarked) [Compound 787] |  |  | 100 | 100 |
| COc1cc(NC(=O)OC(c2ccc(Cl)cc2)C2CCN(Cc3ccc(Oc4ccccn4)cc3)CC2)cc(OC)c1 (centres unmarked) [Compound 633] | 50 | 100 |  |  |
| O=C(Nc1ccc(C(F)(F)F)cc1)OC(c1ccc(C(F)(F)F)cc1)C1CCN(Cc2ccc(Oc3ccccn3)cc2)CC1 (centres unmarked) [Compound 245] | 100 | 100 |  |  |
| O=C(Nc1ccc(F)c(F)c1)OC(c1ccc(C(F)(F)F)cc1)C1CCN(Cc2ccc(Oc3ccccn3)cc2)CC1 (centres unmarked) [Compound 237] | 100 | 100 |  |  |
| CCn1nnc(-c2ccc(CN3CCC(C(OC(=O)Nc4ccc(Cl)c(Cl)c4)c4ccc(Cl)c(Cl)c4)CC3)cc2)n1 (centres unmarked) [Compound 573] | 100 | 100 |  |  |
| CC(C)OC(=O)Nc1ccc(CN2CCC(C(OC(=O)Nc3ccc(Cl)cc3)c3ccc(OC(F)(F)F)cc3)CC2)cc1 (centres unmarked) [Compound 513] | 100 | 100 |  |  |
| CC(C)OC(=O)Nc1ccc(C[N+]2([O-])CCC(=C(c3ccc(Cl)c(F)c3)c3ccc(Cl)c(F)c3)CC2)cc1 (centres unmarked) [Compound 834] |  |  | 100 | 100 |
| CCON=Cc1ccc(CN2CCC(C(OC(=O)Nc3ccc(Cl)cc3)c3ccc(OC(F)(F)F)cc3)CC2)cc1 (centres unmarked) [Compound 537] | 100 | 100 |  |  |

— patent publication US7300946B2, “N-(substituted arylmethyl)-4-(disubstituted methyl) piperidines and pyridines” (Bayer CropScience AG, priority 2002, dated 2007)
